Where two headings read alike, the source gives them in different places.
Legend:
[1] = BYL-719 induced hyperglycemia in C57Bl/6 mice, ZGN-1061 pre-treatment; assay type: in vivo
Method: The following is an example showing that MetAP2 inhibitors, specifically ZGN-1061 can be used in combination with PI3K inhibitors, specifically BYL-719, to treat cancer and to attenuate treatment-induced metabolic dysfunction. In this example, male C57BI/6 mice, age 10-12 weeks, were used. The mice (n=8/treatment group) were administered doses of either vehicle control (10 mM phosphate in 5% mannitol, pH 7.2), ZGN-1061 alone, ZGN-1061 in combination with BYL-719 or BYL-719 alone, as indicated in Table 4. In Table 4, the time of dose indicates the time relative to the administration of BYL-719. Blood glucose was monitored using 10 ul of blood taken from the tail of the mice and a glucometer, starting prior to the BYL-719 administration (time 0) and then again at various times points (15, 30, 60, 90, 120 and 180 minutes) after the administration of BYL-719.

[2] = requires extended intravenous administration; cited from earlier work
[3] = cited from earlier work
[4] = cited from earlier work; remark: listed apart in the source
[5] = human, in vivo; cited from earlier work

Q: With `CO[C@@H]1[C@H](OC(=O)N2CC(CCN3CCOCC3)C2)CC[C@]2(CO2)[C@H]1[C@@]1(C)O[C@@H]1CC=C(C)C` [ZGN-1061] as the compound, how does the “hyperglycemia induced by BYL-719” value ([1]; pre-treatment 0.5 mg/kg SC at -4 h, -24 h or -72 h (QD x3) before BYL-719 45 mg/kg PO) read?
A: attenuated hyperglycemia

Q: What does the source list for `CO[C@@H]1[C@H](OC(=O)NC(=O)CCl)CC[C@]2(CO2)[C@H]1[C@@]1(C)O[C@@H]1CC=C(C)C` [TNP-470, chloroacetylcarbamoylfumagillol]?
A: half-life [2]: short half-life; obesity ([3]; mice, 15 or 20 mg/kg every other day): prevention of obesity; body weight ([3]; ob/ob mice, daily doses 2.5 mg/kg to 10 mg/kg): weight loss; toxicity in humans ([4]; dose-limiting neurotoxicity): too toxic for human use; MTD ([4]; in combination with paclitaxel, dosed three times per week, neuropsychiatric toxicities): 60 mg/m2

Q: With `Cc1nc(NC(=O)N2CCC[C@H]2C(N)=O)sc1-c1ccnc(C(C)(C)C(F)(F)F)c1` [BYL-719, alpelisib] as the compound, how does the blood glucose ([1]; BYL-719 45 mg/kg PO, male C57Bl/6 mice) read?
A: elicited robust hyperglycemia

Q: Which “patients with grade 3 or 4 hyperglycemia” value [5] does the source give for pembrolizumab here?
A: 3-6%

Q: And the “patients with hyperglycemic events” value [5]?
A: 45-49%

Q: For `CO[C@@H]1[C@H](OC(=O)/C=C/C=C/C=C/C=C/C(=O)O)CC[C@]2(CO2)[C@H]1[C@@]1(C)O[C@@H]1CC=C(C)C` [fumagillin], which body weight ([3]; C57BL/6 mice, oral 1 mg/kg daily) is on record?
A: weight loss

Q: Which body weight ([3]; C57BL/6J mice and SD rats, 5 mg/kg/day) does the source give for `CO[C@@H]1[C@H](OC(=O)/C=C/c2ccc(OCCN(C)C)cc2)CC[C@]2(CO2)[C@H]1[C@@]1(C)O[C@@H]1CC=C(C)C` [CKD-732] here?
A: weight loss

Q: And the MTD ([4]; every fourth day schedule, confusion and insomnia)?
A: 15 mg/m2/day
